Data as given in patent US11999676B2, “Vesicular monoamine transporter-2 ligands and their use in the treatment of psychostimulant abuse” (priority 2016, dated 2024).
Read-outs that look alike come from different tables or passages of the source.

Legend:
[1] = target: T1, VMAT2 (Rattus norvegicus (Rat), UniProt Q01827); assay: [3H]Dopamine ([3H]DA) uptake assay, vesicular preparation; format: biochemical
[2] = target: T1, VMAT2; conditions: rat brain synaptic vesicles; read-out: [3H]DTBZ binding (Ki) VMAT2
[3] = Microsomal stability assay, human liver microsomes; conditions: for CLint scaled at 0.08 µM / half-life at 0.08 µM: both, human, pooled liver microsomes; for CLint scaled at 0.08 µM: pH 7.4, Microsomal stability assays: Clearance; for half-life at 0.08 µM: pH 7.4, Microsomal stability assays: Half-life
Procedure: (§1) Each plate holds triplicate samples of two controls (0.4 mM) and up to 14 compounds (0.08 mM) in rat and human liver microsomes. Aliquots of each well of the plate (175 μl of each well) were transferred from the master plate into 5 assay plates. For 0-hr time point, pre-cooled (4° C.) internal standard (437.5 μL, 2 μM caffeine in methanol) was added to the first plate before the reaction starts. NADPH regenerating system solution A (6.05 ml, Fisher Scientific, #NC9255727) was combined with NADPH regenerating system solution B (1.21 ml, Fisher Scientific, #NC9016235) in potassium phosphate buffer (15.8 ml, 0.1 M, pH 7.4, 37° C.). The resulting NADPH solution (43.8 μl) was added to each well of all the 96-well assay plates and mixed with pipette briefly making the final protein and compound concentrations respectively: 0.5 mg/ml, 0.08 μM (0.4 μM for controls). Plates were sealed, and all plates except the 0-hr plate were incubated at 37° C., shaken at a speed of 60 rpm. A single assay plate was tested at each time point: 0.5 hr, 1 hr, 2 hr, and 4 hr. At each time point, 437.5 μL of pre-cooled internal standard was added each well of the plate to quench the reaction. […] 120 μl supernatant was transferred to a 96-well plate, centrifuged again and analyzed by UPLC-MS (Waters Inc., Milford, MA). The compounds and internal standard were detected by selected ion recording (SIR).
(§2) The amount of material was measured as a ratio of peak area to the internal standard and graphed. Using the slope from the initial linear portion of this curve, the degradation rate constant is calculated using equation [1].

[4] = target: hERG channel (Homo sapiens (Human), UniProt Q12809); assay: [3H]Dofetilide binding assay, HEK-293 cell membrane preparation; conditions: [3H]dofetilide, HEK-293 cell membranes; read-out: hERG Binding: Mean Ki ± Standard Deviation
Sequence of hERG channel (Q12809 whole entry): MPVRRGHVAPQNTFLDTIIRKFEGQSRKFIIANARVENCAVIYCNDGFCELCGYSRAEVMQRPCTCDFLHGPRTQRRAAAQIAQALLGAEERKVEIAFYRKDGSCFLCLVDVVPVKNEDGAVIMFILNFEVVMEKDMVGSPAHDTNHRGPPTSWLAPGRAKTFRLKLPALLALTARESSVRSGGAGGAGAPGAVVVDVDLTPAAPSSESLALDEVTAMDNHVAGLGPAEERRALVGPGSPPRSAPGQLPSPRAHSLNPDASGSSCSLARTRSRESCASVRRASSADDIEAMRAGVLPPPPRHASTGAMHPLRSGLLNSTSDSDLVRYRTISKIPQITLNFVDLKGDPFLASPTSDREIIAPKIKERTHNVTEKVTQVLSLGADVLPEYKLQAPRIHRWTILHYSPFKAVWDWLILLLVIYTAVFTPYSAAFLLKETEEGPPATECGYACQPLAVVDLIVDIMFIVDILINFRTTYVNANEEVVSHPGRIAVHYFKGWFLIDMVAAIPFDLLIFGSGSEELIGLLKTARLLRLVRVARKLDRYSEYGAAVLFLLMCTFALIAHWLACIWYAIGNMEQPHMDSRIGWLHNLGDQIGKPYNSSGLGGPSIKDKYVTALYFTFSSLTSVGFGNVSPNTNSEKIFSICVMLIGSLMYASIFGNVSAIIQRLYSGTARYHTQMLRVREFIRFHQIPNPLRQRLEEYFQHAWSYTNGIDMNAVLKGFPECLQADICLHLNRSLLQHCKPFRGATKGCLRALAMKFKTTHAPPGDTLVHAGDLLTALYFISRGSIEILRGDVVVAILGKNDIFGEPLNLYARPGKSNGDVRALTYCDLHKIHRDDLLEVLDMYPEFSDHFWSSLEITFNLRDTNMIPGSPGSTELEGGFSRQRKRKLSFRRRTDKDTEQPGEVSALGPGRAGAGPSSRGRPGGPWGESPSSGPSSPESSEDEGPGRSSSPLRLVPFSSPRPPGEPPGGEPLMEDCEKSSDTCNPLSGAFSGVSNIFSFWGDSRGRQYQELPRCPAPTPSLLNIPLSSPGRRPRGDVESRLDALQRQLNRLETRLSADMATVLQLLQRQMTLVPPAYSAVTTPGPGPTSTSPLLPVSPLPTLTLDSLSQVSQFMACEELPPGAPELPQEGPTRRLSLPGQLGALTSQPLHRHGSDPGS
Procedure: [^3H]Dofetilide binding assays were conducted using commercially available HEK-293 cell membranes which stably express the hERG channel. Membranes were suspended in assay buffer (50 mM Tris, 10 mM KCl, 1 mM MgCl2, pH 7.4) prior to the experiment. […] Aliquots of the HEK-293 cell membrane suspension which contained 5 μg membrane protein were added to tubes containing assay buffer, 5 nM [^3H]dofetilide and a range of concentrations of analog (10 nM-100 μM). Nonspecific binding was determined in the presence of amitriptyline (1 mM). Samples were incubated for 1 hr. at 24° C., followed by rapid filtration. […] The affinity for the [^3H]dofetilide binding site on the hERG channel expressed in the HEK-293 cellular membrane was determined from the analog concentration response curves.

[5] = Microsomal stability assay, rat liver microsomes; conditions: for CLint scaled at 0.08 µM / half-life at 0.08 µM: female, Sprague-Dawley, rat, liver microsomes; for CLint scaled at 0.08 µM: pH 7.4, Microsomal stability assays: Clearance; for half-life at 0.08 µM: pH 7.4, Microsomal stability assays: Half-life
Procedure: as §1, §2

[6] = rat striatal synaptic vesicles, read-out: [3H]DA uptake (Ki) VMAT2
[7] = [3H]DA uptake, rat, read-out: VMAT2 (rat) Inhibition: Mean Ki ± Standard Deviation

| SMILES | Ki [1, 6] [nM] | Ki [2] [nM] | CLint scaled at 0.08 µM [3] [mL/min/kg] | half-life at 0.08 µM [3] [h] | Ki [1, 7] [nM] | Ki [4] [nM] | also measured |
| --- | --- | --- | --- | --- | --- | --- | --- |
| CC(Cc1ccc(F)cc1)NCCc1ccccc1 (stereo not shown) [Compound 38] | 69 ± 9 | 2500 ± 1600 | – | – | – | – | – |
| COc1ccc(CCCNC(C)Cc2ccccc2)cc1 (stereo not shown) [Compound 8] | 14 ± 3 | 2200 ± 110 | – | – | – | – | – |
| CC(Cc1ccc(Br)cc1)NCCCCc1ccccc1 (stereo not shown) [Compound 14] | 3 ± 0.3 | 81 ± 16 | – | – | – | – | – |
| CC(Cc1ccc(NC=O)cc1)NCCCc1ccc(F)cc1 (stereo not shown) [Compound 88] | – | – | 13.4 | 1.6 | 12.7 ± 2.85 | 738 ± 244 | – |
| CC(Cc1ccccc1)NCCCc1ccc(I)cc1 (stereo not shown) [Compound 213] | – | – | – | – | 22.2 ± 2.21 | 642 ± 168 | Microsomal stability assays: Clearance [3]: <5.20 mL/min/kg; Microsomal stability assays: Half-life [3]: >4 h |
| CC(Cc1ccccc1)NCCCc1ccc(I)cc1 (stereo not shown) [Compound 214] | – | – | – | – | 6.86 ± 1.81 | 3040 ± 1370 | Microsomal stability assays: Clearance [3]: 17.6 mL/min/kg; Microsomal stability assays: Half-life [3]: 1.2 h |
| CC(Cc1ccc([N+](=O)[O-])cc1)NCCCc1ccc(F)cc1 (stereo not shown) [Compound 118] | – | – | < 5.2 | > 4 | 7.08 ± 1.29 | 206 ± 137 | – |
| CC(Cc1ccccc1)NCCOc1ccccc1 (stereo not shown) [Compound 19] | 59 ± 7 | 4100 ± 300 | – | – | – | – | – |
| CC(Cc1ccncc1)NCCCc1ccc(Br)cc1 (stereo not shown) [Compound 168] | – | – | 6 | 3.5 | 41 ± 11.1 | 1780 ± 468 | – |
| CC(Cc1ccc(N)cc1)NCCc1ccccc1 (stereo not shown) [Compound 44] | 210 ± 80 | 17000 | – | – | – | – | – |
| CC(Cc1ccc(O)cc1)NCCc1ccccc1 (stereo not shown) [Compound 35] | 47 ± 6 | 2600 ± 400 | – | – | – | – | – |
| COc1ccc(CC(C)N(C)CCCc2ccccc2)cc1 (stereo not shown) [Compound 30] | 270 ± 38 | 7110 ± 820 | – | – | – | – | – |
| CC(Cc1ccc([N+](=O)[O-])cc1)NCCCc1ccc(F)cc1 (stereo not shown) [Compound 120] | – | – | – | – | 9.85 ± 1.62 | 130 ± 25.6 | Microsomal stability assays: Clearance [3]: <5.20 mL/min/kg; Microsomal stability assays: Half-life [3]: >4 h |
| CC(Cc1ccccc1)NCCc1ccc(O)c(O)c1 (stereo not shown) [Compound 23] | 92 ± 17 | 3400 ± 600 | – | – | – | – | – |
| CC(Cc1ccc([N+](=O)[O-])cc1)NCCCc1ccc(Br)cc1 (stereo not shown) [Compound 121] | – | – | < 5.2 | > 4 | 13.4 ± 4.8 | 80 ± 67.7 | – |
| CC(Cc1ccc(F)cc1)NCCCc1ccc(Br)cc1 (stereo not shown) [Compound 146] | – | – | < 5.2 | > 4 | 22.1 ± 6.5 | 546 ± 199 | – |
| CC(Cc1ccncc1)NCCCc1ccc(F)cc1 (stereo not shown) [Compound 186] | – | – | 4.3 | 4.8 | 72.4 ± 29.8 | 3320 ± 1930 | – |
| COc1ccc(CCCNC(C)CCc2ccc(OC)cc2)cc1 (stereo not shown) [Compound 53] | 24 ± 6 | 1500 ± 700 | – | – | – | – | – |
| COc1ccc(CCCNC(C)Cc2ccc(Br)cc2)cc1 (stereo not shown) [Compound 16] | 12 ± 3 | 460 ± 80 | – | – | – | – | – |
| CC(Cc1ccc(Br)cc1)NCCc1ccccc1 (stereo not shown) [Compound 3] | 33 ± 7 | 1230 ± 130 | – | – | – | – | – |
| CC(Cc1ccc(NC=O)cc1)NCCCc1ccc(F)cc1 (stereo not shown) [Compound 89] | – | – | – | – | 12.7 ± 2.85 | 738 ± 244 | Microsomal stability assays: Clearance [3]: 14 mL/min/kg; Microsomal stability assays: Half-life [3]: 1.5 h |
| CC(Cc1ccc(Br)cc1)NCCCc1ccccc1 (stereo not shown) [Compound 11] | 8 ± 1 | 700 ± 63 | – | – | – | – | – |

| SMILES | Ki [1, 6] [nM] | Ki [2] [nM] | CLint scaled at 0.08 µM [3] [mL/min/kg] | half-life at 0.08 µM [3] [h] | Ki [1, 7] [nM] | Ki [4] [nM] | also measured |
| --- | --- | --- | --- | --- | --- | --- | --- |
| CC(Cc1ccc(N)cc1)NCCCc1ccccc1 (stereo not shown) [Compound 105] | – | – | 29.6 | 0.7 | 26.8 ± 6.49 | 4610 ± 1010 | – |
| COc1ccc(CCCNC(C)Cc2ccc(O)cc2)cc1 (stereo not shown) [Compound 36] | 72 ± 30 | 230 ± 60 | – | – | – | – | – |
| CC(Cc1ccc(N)cc1)NCCCc1ccccc1 (stereo not shown) [Compound 45] | 36 ± 3 | 2800 ± 700 | – | – | – | – | – |
| COc1ccc(CC(C)NCCCc2ccccc2)cc1OC (stereo not shown) [Compound 46] | 140 ± 13 | 3800 ± 100 | – | – | – | – | – |
| CC(Cc1ccc(F)cc1)NCCCc1ccccc1 (stereo not shown) [Compound 126] | – | – | 11.5 | 1.8 | 19.3 ± 5.14 | 2050 ± 773 | – |
| CC(Cc1ccccc1)NCCCc1ccncc1 (stereo not shown) [Compound 204] | – | – | 5.8 | 3.6 | 49.1 ± 3.51 | 8460 ± 4580 | – |
| CC(Cc1ccc(F)cc1)NCCCc1ccc(F)cc1 (stereo not shown) [Compound 190] | – | – | 5.4 | 3.9 | 8.28 ± 0.736 | 789 ± 221 | – |
| CC(Cc1ccc(N)cc1)NCCCc1ccc(F)cc1 (stereo not shown) [Compound 112] | – | – | – | – | 16.7 ± 3.34 | 2500 ± 435 | Microsomal stability assays: Clearance [3]: 23.5 mL/min/kg; Microsomal stability assays: Half-life [3]: 0.9 h |
| CC(Cc1ccc(F)cc1)NCCCc1ccc(-c2ccnn2C)cc1 (stereo not shown) [Compound 166] | – | – | 34.3 | 0.6 | 46.5 ± 8.97 | 2200 ± 251 | – |
| CC(Cc1ccc(N)cc1)NCCCc1ccc(F)cc1 (stereo not shown) [Compound 109] | – | – | 25.2 | 0.8 | 19.2 ± 4.43 | 2590 ± 792 | – |
| CC(Cc1ccccc1)NCCCc1ccc(Br)cc1 (stereo not shown) [Compound 218] | – | – | 9.5 | 2.2 | 14.2 ± 2.17 | 421 ± 38.1 | – |
| CC(Cc1ccc(F)cc1)NCCCc1ccnc2ccccc12 (stereo not shown) [Compound 162] | – | – | 102 | 0.2 | 30.5 ± 8.59 | 2950 ± 1360 | – |
| CC(Cc1ccc([N+](=O)[O-])cc1)NCCCc1ccccc1 (stereo not shown) [Compound 115] | – | – | < 5.2 | > 4 | 19 ± 3.81 | 285 ± 78.8 | – |
| CC(Cc1ccc(NC=O)cc1)NCCCc1ccccc1 (stereo not shown) [Compound 77] | – | – | 11.2 | 1.9 | 21 ± 1.1 | 1760 ± 630 | – |
| CC(Cc1ccc(F)cc1)NCCCc1ccc(Cl)cc1 (stereo not shown) [Compound 188] | – | – | 4.7 | 4.4 | 22 ± 7.72 | 467 ± 280 | – |
| CC(Cc1ccc(F)cc1)NCCCc1ccc2[nH]ccc2c1 (stereo not shown) [Compound 55] | – | – | – | – | 27.4 ± 8.93 | 1550 ± 630 | CLint scaled at 0.08 µM [5]: > 400 mL/min/kg; half-life at 0.08 µM [5]: < 0.1 h |
| CC(Cc1ccc(C(F)(F)F)cc1)NCCCc1ccncc1 (stereo not shown) [Compound 165] | – | – | < 5.2 | > 4 | 53.2 ± 6.5 | 1890 ± 639 | – |
| CC(Cc1ccccc1)NCCCc1ccc(N)cc1 (stereo not shown) [Compound 220] | – | – | – | – | 40.4 ± 4.72 | 5340 ± 5630 | CLint scaled at 0.08 µM [5]: 65.3 mL/min/kg; half-life at 0.08 µM [5]: 0.7 h |
| CC(Cc1ccc([N+](=O)[O-])cc1)NCCCc1ccc(F)cc1 (stereo not shown) [Compound 119] | – | – | – | – | 9.85 ± 1.62 | 130 ± 25.6 | Microsomal stability assays: Clearance [5]: 112 mL/min/kg; Microsomal stability assays: Half-life [5]: 0.4 h |
| CC(Cc1ccc(F)c(F)c1)NCCCc1ccc(N)cc1 (stereo not shown) [Compound 60] | – | – | – | – | 48.3 ± 16.4 | 3140 ± 1550 | CLint scaled at 0.08 µM [5]: 30.7 mL/min/kg; half-life at 0.08 µM [5]: 1 h |
| CC(Cc1ccc(F)cc1)NCCCc1ccc(NC=O)cc1 (stereo not shown) [Compound 70] | – | – | 23 | 0.9 | 22.5 ± 4.48 | 2600 ± 711 | – |
